This test has as its system CmPT2 (CmPht1;2). Conditions: labelled compound; H+ co-transporter; whole yeast cells; pH of uptake assay not stated.

For `O=P(O)(O)O` [phosphate], the Michaelis constant (Km) – broadly, the substrate concentration at which the rate is half of its maximum – was 65.7 µM.

The values above are taken from paper PMC9953561, “Five Post-Translational Modification Residues of CmPT2 Play Key Roles in Yeast and Rice” (International Journal of Molecular Sciences, 2023).
